For one assay, the target named is T1, Vmh2-ArsC.
T1 construct: single-chain fusion: Vmh2 of Pleurotus ostreatus (N-terminal), 15-residue flexible linker, TtArsC, thrombin site LVPRGS, C-terminal His-tag; with Hydrophobin Vmh2 (Pleurotus ostreatus)
It counts as binding, Thermus thermophilus. The following applies: chimera immobilised on gold; 50 mM Tris-HCl pH 7.5, 60 °C, 1 h incubation; detection in 1 M HCl; read-out: KAsIII (converted).

Another assay addresses T2, ArsC-Vmh2.
T2 construct: single-chain fusion: TtArsC (N-terminal), 15-residue flexible linker, Vmh2 of Pleurotus ostreatus, thrombin site LVPRGS, C-terminal His-tag; with Hydrophobin Vmh2 (Pleurotus ostreatus)
It counts as binding, Thermus thermophilus. The following applies: chimera immobilised on gold; 50 mM Tris-HCl pH 7.5, 60 °C, 1 h incubation; detection in 1 M HCl; read-out: KAsIII (converted).

With `O=[As]O` [As(III)], the Kd at Vmh2-ArsC is 0.833 mM; on ArsC-Vmh2 it was 1.54 mM.

(Values after article PMC7862302, “Self-assembling thermostable chimeras as new platform for arsenic biosensing” (Scientific Reports, 2021).)
